According to patent US6500443B1, “Delivery of a sacrificial substrate to inhibit protease permeation into skin” (Kimberly-Clark Worldwide, Inc., priority 1999, dated 2002):

Settings: excised skins, modified FRANZ diffusion cells, over a 36 hour period, from treated fabric
Description: The fabrics were then tested for topical delivery of the zinc salt using excised skins in modified FRANZ diffusion cells. The amount of zinc accumulating and penetrating the skin was determined over a 36 hour period.

Substance: zinc sulfate monohydrate
- accumulation of zinc in skin: 1311 μg/g dry weight of skin
- penetration of zinc through skin: 3.2 μg/cm^2/hr
